Data on 71 molecules can be found in publication PMC8041284, “Tunable Methacrylamides for Covalent Ligand Directed Release Chemistry” (Journal of the American Chemical Society, 2021).

For orientation: inhibition means the relative decrease from the control value, in per cent.

Where a SMILES comes first, the peptide text is derived from it.

BTK, sequence (Q06187 402-655 limits assumed): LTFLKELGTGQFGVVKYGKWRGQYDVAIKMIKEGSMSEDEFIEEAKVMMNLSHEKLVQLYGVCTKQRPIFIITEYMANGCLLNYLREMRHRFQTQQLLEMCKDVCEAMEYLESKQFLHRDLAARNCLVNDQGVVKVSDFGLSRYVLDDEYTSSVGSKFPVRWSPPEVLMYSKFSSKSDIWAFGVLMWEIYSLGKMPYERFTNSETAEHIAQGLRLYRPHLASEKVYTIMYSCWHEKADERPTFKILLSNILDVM

One test has as its target BTK (Homo sapiens, UniProt Q06187). Kind of test: biochemical. The note with it: read-out: BTK inhibition (%).
As for `Cc1cccc(C)c1NC1=NCCCS1` [PCM-0064906], the inhibition at 10 µM was -21.8%. For `C=CCCCCCCCCC(=O)O[C@H]1CC[C@H]2[C@@H]3CCC4=CC(=O)C=C[C@]4(C)[C@H]3CC[C@]12C` [PCM-0215894], the inhibition at 10 µM was 10.9%.

The same test, now with this note: read-out: BTK inhibition (%), 0.75 uM BTK, […] probe 3l, 15 min preincubation.
For `CC(C)(C)C(=O)N1N=CC[C@H]1c1ccccc1` [PCM-0216112], the inhibition at 10 µM amounted to 13.8%. Still for that read-out and setting: for `Cc1cc(Nc2ncnc3ccc(NC4=NC(C)(C)CO4)cc23)ccc1Oc1ccn2ncnc2c1` [PCM-0215734] the value was 71.7%; for `O=c1[nH]c2ccc(Cl)cc2c(N[C@@H]2CN3CCC2CC3)c1-c1nc2ccccc2[nH]1` [PCM-0095378], 0%; for `COc1nc(C)cnc1NS(=O)(=O)c1cccnc1-c1ccc(-c2nnco2)cc1` [PCM-0095131], 3.4%.

Regarding `CC(=O)OCC1=C(C(=O)O)N2C(=O)[C@@H](NC(=O)Cc3cccs3)[C@H]2SC1` [PCM-0214820], the inhibition at 10 µM is -12.5%. Regarding `CC(C)c1ccc2c(c1O)CC[C@H]1C3=C(CC[C@]21C)C(=O)OC3` [PCM-0216350], the inhibition at 10 µM was determined as 0.8%. On the same count and under the same terms, for `Cc1ccc(NC(=O)c2ccc(CN3CC[C@H](N(C)C)C3)c(C(F)(F)F)c2)cc1Nc1nccc(-c2cncnc2)n1` [PCM-0214863] the value was 36.6%; for `CC1(C)CC[C@]2(C(=O)O)CC[C@]3(CO)C(=CC[C@@H]4[C@@]5(C)C[C@H](O)[C@H](O[C@@H]6O[C@H](CO)[C@@H](O)[C@H](O)[C@H]6O)[C@@](C)(C(=O)O)[C@@H]5CC[C@]43C)[C@@H]2C1` [PCM-0216380], 11.6%. On the same count and under the same terms, the result for `C[C@H](CCC(=O)O)[C@H]1CC[C@H]2[C@@H]3CC[C@@H]4C[C@H](O)CC[C@]4(C)[C@H]3C[C@H](O)[C@]12C` [PCM-0214839] reads 11.7%. On the same count and under the same terms, the result for `COC(=O)/C=C/c1ccc(O)cc1` [PCM-0214996] reads 0%.

In the case of `O=C(Nc1c(Cl)cncc1Cl)c1ccc(OC(F)F)c(OCC2CC2)c1` [PCM-0095310], the inhibition at 10 µM stood at 3.1%. On the same count and under the same terms, the result for `O=C(O)CCC1CCC(c2cc(F)ccc2F)(S(=O)(=O)c2ccc(Cl)cc2)CC1` (centres unmarked) [PCM-0095325] reads -15.2%; that for `Nc1ccc(O)cc1` [PCM-0216110], 82.6%.

With `CCn1cc(C(=O)O)c(=O)c2c(N)c(F)c(NC3CCCCC3)cc21` [PCM-0215625], the inhibition at 10 µM turned out to be 5.4%. For `CN1CCN2c3ccccc3Cc3ccccc3C2C1` (centres unmarked) [PCM-0065420], the inhibition at 10 µM was 12.4%. As to `Cc1cc(C)cc(Oc2ccc(CNC(=O)[C@H](C)N)cc2C)c1` [PCM-0215829], the inhibition at 10 µM was -17.8%. The same measure, in the same setting: the result for `OCC1(O)COc2cc(O)ccc2-c2cc(O)c(O)cc2C1` (centres unmarked) [PCM-0216494] reads 39.4%; that for `C[N+](C)(C)C[C@H](O)CC(=O)[O-]` [PCM-0090364], 10.1%. The same measure, in the same setting: the result for `COc1cc2c(cc1OC)[C@@H](Cc1ccc(Oc3cc(C[C@@H]4c5cc(OC)c(OC)cc5CCN4C)ccc3O)cc1)N(C)CC2` [PCM-0216529] reads -9.3%; that for `Cc1c(C(=O)C=Cc2ccccc2)[n+](=O)c2ccccc2n1[O-]` [PCM-0216007], -6.9%; that for `O=c1[nH]ccc2c(S(=O)(=O)N3CCCNCC3)cccc12` [PCM-0215797], -2.8%. Still for that read-out and setting: for `CNCc1ccc(C)c(NC(=O)c2ccc(Nc3nc(-c4ccccc4)c4ccccc4n3)cc2)c1` [PCM-0095748] the value was 79.5%.

Take `O=c1[nH]c(=O)n([C@H]2C[C@H](O)[C@@H](CO)O2)cc1/C=C/Br` [PCM-0215082]: the inhibition at 10 µM came to 7.7%.

Regarding `COC(=O)c1cc(OC)c(OC)c(OC)c1` [PCM-0215033], the inhibition at 10 µM is -13.2%. Still for that read-out and setting: for `CCCCCCCCCCCC1=C(O)C(=O)C=C(O)C1=O` [PCM-0095569] the value was 42.5%; for `C[C@H](N[C@@H](CCc1ccccc1)C(=O)O)C(=O)N1CCC[C@H]1C(=O)O` [PCM-0065638], 3.1%. Still for that read-out and setting: the result for `CCOC(=O)n1ccn(C)c1=S` [PCM-0086034] reads -17.1%.

As for `CS(=O)(=O)N1CCc2c(-c3cnc(N)nc3)nc(N3CCOCC3)nc21` [PCM-0095409], the inhibition at 10 µM is -5.5%. Still for that read-out and setting: the result for `CC(O)=C(C#N)C(=O)Nc1ccc(C(F)(F)F)cc1` [PCM-0214764] reads 0%. On the same count and under the same terms, for `COc1cc(-c2ncn(/C=C\C(=O)OC(C)C)n2)cc(C(F)(F)F)c1` [PCM-0215247] the value was -11.6%; for `N=C1CCCN1Cc1[nH]c(=O)[nH]c(=O)c1Cl` [PCM-0214897], -10.1%; for `N=c1ccn2c(n1)O[C@H]1[C@H](O)[C@@H](CO)O[C@H]12` [PCM-0094879], 6.2%. The same measure, in the same setting: the result for `NC1(c2ccc(-c3nc4ccn5c(=O)[nH]nc5c4cc3-c3ccccc3)cc2)CCC1` [PCM-0095042] reads -2.8%; that for `O=[N+]([O-])c1ccc(S(=O)(=O)N2CCN(c3ccnc4cc(Cl)ccc34)CC2)c([N+](=O)[O-])c1` [PCM-0215531], -12.4%.

Consider `CC(C)c1cc2c(c(O)c1O)[C@@]13CCCC(C)(C)[C@@H]1C[C@@H]2OC3=O` [PCM-0216410], for which the inhibition at 10 µM was found to be 10.8%. Consider `Cc1nn(C)c(COc2ccc(N3CCN(S(=O)(=O)N(C)C)CC3)cc2)c1-c1cccc2c(CCCOc3cccc4ccccc34)c(C(=O)O)n(CCN3CCOCC3)c12` [PCM-0215538], for which the inhibition at 10 µM is 5.1%. The same measure, in the same setting: for `OCC(CO)N[C@H]1C[C@](O)(CO)[C@@H](O)[C@H](O)[C@H]1O` [PCM-0214770] the value was -8.6%. Still for that read-out and setting: the result for `COc1ccc(-c2cc(=O)c3c(OC)c(OC)c(OC)c(OC)c3o2)cc1OC` [PCM-0091108] reads 2.3%. Still for that read-out and setting: the result for `CC1CCCCCCCCCCCCC(=O)C1` (centres unmarked) [PCM-0215929] reads 0.7%; that for `CCCC[S+]([O-])c1sc2nc(-c3cccs3)cc(-c3ccccc3)c2c1N` (centres unmarked) [PCM-0215569], 0.8%; that for `COC(=O)[C@H](Cc1ccccc1)NC(=O)[C@@H](N)CC(=O)O` [PCM-0214708] (H-Asp-Phe-OMe), 6.2%.

For the molecule `CC(C)=CCC/C(C)=C/CC/C(C)=C/CCC(=O)OC/C=C(\C)CCC=C(C)C` [PCM-0216575], the inhibition at 10 µM was determined as 7.7%. With `O=c1c2ccccc2nc2n1CCc1c-2[nH]c2ccccc12` [PCM-0065551], the inhibition at 10 µM stood at 0.7%. The same measure, in the same setting: for `O=c1ccc2ccc(OCCCCN3CCN(c4cccc5sccc45)CC3)cc2[nH]1` [PCM-0214822] the value was 0.8%. Still for that read-out and setting: for `CCOC(=O)O[C@]1(C(=O)OCCl)CC[C@H]2[C@@H]3CCC4=CC(=O)C=C[C@]4(C)[C@H]3[C@@H](O)C[C@@]21C` [PCM-0095115] the value was 13.8%. In the case of `O[C@@H](COc1cccc2ncccc12)CN1CCN(C2c3ccccc3[C@@H]3[C@H](c4ccccc42)C3(F)F)CC1` (some centres unmarked) [PCM-0095161], the inhibition at 10 µM amounted to 103%. Turning to `O=C(O)/C=C/c1cccc(O)c1` [PCM-0216210], the inhibition at 10 µM is -3.1%. Regarding `Cc1cccc(CN2CCN(C(c3ccccc3)c3ccc(Cl)cc3)CC2)c1` (centres unmarked) [PCM-0086087], the inhibition at 10 µM stood at 67.2%. Same read-out and setting: for `CC(C)N(CCCCOCC(=O)NS(C)(=O)=O)c1cnc(-c2ccccc2)c(-c2ccccc2)n1` [PCM-0214894] the value was 11.7%; for `COc1ccc(/C=C/c2cc(O)cc(O[C@@H]3O[C@H](CO)[C@@H](O)[C@H](O)[C@H]3O)c2)cc1O` [PCM-0214544], 6.9%. Same read-out and setting: for `O=C(O)C(Cc1c[nH]c2ccccc12)N1C(=O)c2ccccc2C1=O` (centres unmarked) [PCM-0095449] the value was 7.6%. Same read-out and setting: for `CC1=NCC[C@@H](C(=O)O)N1` [PCM-0216558] the value was -13.6%. Regarding `O=C1NC(=O)C(c2cnc3ccccn23)=C1c1cn2c3c(cc(F)cc13)CN(C(=O)N1CCCCC1)CC2` [PCM-0215438], the inhibition at 10 µM was determined as 80%. Still for that read-out and setting: the result for `Cc1ccc(C(=O)Nc2ccc(CN3CCN(C)CC3)c(C(F)(F)F)c2)cc1C#Cc1cnc2[nH]ncc2c1` [PCM-0215209] reads 114%; that for `Nc1nc(=S)c2ncn([C@H]3C[C@H](O)[C@@H](CO)O3)c2[nH]1` [PCM-0215558], -7.7%; that for `O=C(O)CCCc1ccccc1` [PCM-0095550], -12.4%.

In the case of `Cn1cc(-c2cc(Oc3cc(F)c(NC(=O)C4(C(=O)Nc5ccccc5)CC4)cc3F)ccn2)cn1` [PCM-0216116], the inhibition at 10 µM worked out at 88.8%. On the same count and under the same terms, for `OC[C@H]1O[C@H](O[C@H]2[C@H](O)[C@@H](O)C(O)O[C@@H]2CO)[C@H](O)[C@@H](O)[C@@H]1O` (some centres unmarked) [PCM-0215131] the value was 0%.

As for `O=S(=O)(O)CCS` [PCM-0086246], the inhibition at 10 µM is -3.1%.

For `C[C@@H]1CC(=O)NN=C1c1ccc(NN=C(C#N)C#N)cc1` [PCM-0090272], the inhibition at 10 µM amounted to 21.8%.

Turning to `COc1ccc(-c2coc3cc(O[C@@H]4O[C@H](CO)[C@@H](O)[C@H](O)[C@H]4O)ccc3c2=O)cc1O` [PCM-0216381], the inhibition at 10 µM is -10%. On the same count and under the same terms, the result for `C[C@@]12C[C@@]3(O)O[C@@H](O1)[C@]1(COC(=O)c4ccccc4)[C@H]3C[C@@]12O[C@@H]1O[C@H](COC(=O)c2ccccc2)[C@@H](O)[C@H](O)[C@H]1O` [PCM-0216426] reads -18.5%; that for `CC1(C)S[C@@H]2[C@H](NC(=O)[C@H](NC(=O)N3CCNC3=O)c3ccccc3)C(=O)N2[C@H]1C(=O)O` [PCM-0095627], 30.4%. On the same count and under the same terms, for `NC(=O)NCCC[C@H](N)C(=O)O` [PCM-0215941] the value was -17.9%; for `CCS(=O)(=O)CCn1c([N+](=O)[O-])cnc1C` [PCM-0086486], -4.7%; for `Cc1nc2c(O)cccc2c(=O)[nH]1` [PCM-0215466], -10.8%. On the same count and under the same terms, the result for `COc1cc(-c2coc3cc4c(c(OC)c3c2=O)OCO4)cc(OC)c1OC` [PCM-0216353] reads -9.3%; that for `C[C@]1(COc2ccc(N3CCC(Oc4ccc(OC(F)(F)F)cc4)CC3)cc2)Cn2cc([N+](=O)[O-])nc2O1` [PCM-0215096], -1.5%; that for `OCCOCCN1CCN(C(c2ccccc2)c2ccc(Cl)cc2)CC1` (centres unmarked) [PCM-0085866], 4.1%.
